# Key:
# [1] = people taking L-carnitine for weight loss, as much as 1˜3 g; cited from earlier work
# [2] = tested on: mice fed with high fat feed; assay: Comparative pharmacological evaluation in obese mice (high fat feed model); format: in vivo; conditions: gavage once a day, 50 mg according to L-carnitine, 4 weeks
# Experimental: Fifty male mice are selected at 6 weeks of age. The basal feed is fed for two weeks before the start of the experiment, and the initial body weight is 26±2 g. All experimental groups are randomly divided into 5 groups of 10 each, and the groups were as follows. (1) obesity experiment group: 1 group; (2) obesity experiment group: 2 groups; (3) obese control group; (4) obese blank group; (5) normal blank group Cage feeding, 5 in 1 cage; ambient temperature of 22±2° C., humidity of 45˜65%; the light illumination alternates for 12 h, and the mice are free to eat and drink. Among them, the normal blank group is fed with normal feed, and the other 4 groups are fed with high fat feed; changes in body weight are recorded twice a week; the feeding process lasts 6 weeks to establish the model. Group (1) is given a solution of the NADH compound composition prepared in Embodiment 1 by gavage once a day; Group (2) is given a mixture of NADH and L-carnitine in Embodiment 1 (without other ingredients) by gavage once a day; Group (3) is given L-carnitine by gavage once a day; the amount of administration for Group (1), Group (2) and Group (3) is 50 mg according to L-carnitine; during the period, 5 groups of mice are fed with normal diet in free diet, and continued to be observed for 4 weeks. […]
compound,measurement,setting,value
"C[N+](C)(C)C[C@H](O)CC(=O)[O-] [L-carnitine, β-hydroxy γ-trimethylammonium butyrate]",absolute bioavailability,[1],15.9±4.9%
same,Body fat ratio (%),[2]; (fat around kidney + fat around testicles)/body weight after test*100,2.35 ± 2.69%
same,Body weight growth rate (%),[2]; weight growth/experimental initial weight*100,44.98 ± 3.44%
